We go through 26 compounds from US10829487B2, “Benzylamino substituted pyridopyrimidinones and derivatives as SOS1 inhibitors” (Boehringer Ingelheim International GmbH, priority 2017, dated 2020).

Assay [1] has as its target protein-protein interaction between SOS1 and KRAS G12D (Homo sapiens (Human), UniProt Q07889). Kind of assay: KRAS::SOS1 AlphaScreen Binding Assay. An excerpt:
KRAS::SOS1 AlphaScreen Binding Assay
Low IC50 values are indicative of high potency of the SOS1 inhibitor compound in this assay setting:
Reagents: • GST-tagged SOS1 (564_1049_GST_TEV_ECO) produced in-house • GST-TEV-SOS1 (564-1049) is purchased from Viva Biotech Ltd. • 6×His-Tev-K-RasG12D(1-169)Avi is purchased from Xtal BioStructures, Inc. (Lot # X129-110) • GDP (Sigma Cat No G7127) • AlphaLISA Glutathione Acceptor Beads (PerkinElmer, Cat No AL109) • AlphaScreen Streptavidin Donor Beads (PerkinElmer Cat No 6760002) • Assay plates: Proxiplate-384 PLUS, white (PerkinElmer, Cat No 6008289)
10 nM (final assay concentration) KRAS G12D, 10 μM (final assay concentration) GDP and 5 nM (final assay concentration) GST-SOS1 are mixed in assay buffer prior to use and kept at room temperature.
AlphaLISA Glutathione Acceptor Beads and AlphaScreen Streptavidin Donor Beads are mixed in assay buffer at a concentration of 10 μg/mL (final assay concentration) each prior to use and kept at room temperature.
Compounds are diluted to a final start concentration of 100 μM and are tested in duplicate. Assay-ready plates (ARPs) are generated using an Access Labcyte Workstation with a Labcyte Echo 550 or 555 accoustic dispenser. For compound a start concentration of 100 μM, 150 nL of compound solution is transferred per well in 11 concentrations in duplicate with serial 1:5 dilutions.
The assay is run using a fully automated robotic system in a darkened room below 100 Lux. 10 μL of KRAS::SOS1 GDP mix is added into columns 1-24 to the 150 nL of compound solution (final dilution in the assay 1:100, final DMSO concentration 1%).
After a 30 minute incubation time 5 μL of bead mix is added into columns 1-23. Plates are kept at room temperature in a darkened incubator. After a further 60 minute incubation, the signal is measured using a PerkinElmer Envision HTS Multilabel Reader using the AlphaScreen specifications from PerkinElmer. Each plate contains the following controls: • diluted DMSO+KRAS::SOS1 GDP mix+bead mix • diluted DMSO+KRAS::SOS1 GDP mix
IC50 values are calculated and analyzed using a 4 parametric logistic model.

The subject of assay [2] is ERK phosphorylation in DLD-1 cells (KRAS G13D). Kind of assay: ERK Phosphorylation Assay (AlphaLISA SureFire Ultra p-ERK1/2). Format: cell-based. Particulars: Homo sapiens, 1 h compound, EGF 50 ng/mL 10 min, read-out: pERK. As to the method:
ERK Phosphorylation Assay
Low IC50 values are indicative of high potency of the SOS1 inhibitor compounds in this assay setting.
ERK phosphorylation assays are performed using the following human cell lines: DLD-1 (ATCC CCL-221): human colon cancer with a KRAS G13D mutation;
DLD-1 cells (ATCC CCL-221) are seeded at 50,000 cells per well in/60 μL of RPMI with 10% FBS, non-essential amino acids, pyruvate and glutamax in Greiner TC 384 plates. The cells are incubated for 1 h at room temperature and then incubated overnight in an incubator at 37° C. and 5% CO2 in a humidified atmosphere. 60 nL compound solution (10 mM DMSO stock solution) is then added using a Labcyte Echo 550 device. After a 1 h incubation in the aforementioned incubator, 3 μL Epidermal Growth Factor (EGF, final concentration 50 ng/mL) is added. 10 minutes later the medium is removed, and the cells lysed by addition of 20 μL of 1.6-fold lysis buffer from the AlphaLISA SureFire Ultra pERK1/2 (Thr202/Tyr204) Assay Kit with added protease inhibitors, 100 nM trametinib+100 nM staurosporine. After 20 minutes of incubation at room temperature with shaking, 6 μL of each lysate sample is transferred to a 384-well Proxiplate and analyzed for pERK (Thr202/Tyr204) with the AlphaLISA SureFire Ultra pERK1/2 (Thr202/Tyr204) Assay Kit. 3 μL Acceptor Mix and 3 μL Donor Mix are added under subdued light and incubated for 2 h at room temperature in the dark, before the signal is measured on a Perkin Elmer Envision plate reader using 384 AlphaScreen settings for Proxiplates. Data are fitted by iterative calculation with variable hill slope. The sigmoidal curve slope is fitted using a default fitting curve to ascertain IC50 values.
A general note: In Alpha technology, singlet oxygen from a donor bead excites a nearby acceptor bead.

Setting [3] is: KRAS G12D::SOS1 AlphaScreen, measured without EDTA unless marked with an asterisk.
[4] abbreviates: Table 20, KRAS::SOS1 AlphaScreen (SOS1 / KRAS G12D).

protein-protein interaction between SOS1 and KRAS G12D, sequence (Q07889 564-1049, stated change not applied): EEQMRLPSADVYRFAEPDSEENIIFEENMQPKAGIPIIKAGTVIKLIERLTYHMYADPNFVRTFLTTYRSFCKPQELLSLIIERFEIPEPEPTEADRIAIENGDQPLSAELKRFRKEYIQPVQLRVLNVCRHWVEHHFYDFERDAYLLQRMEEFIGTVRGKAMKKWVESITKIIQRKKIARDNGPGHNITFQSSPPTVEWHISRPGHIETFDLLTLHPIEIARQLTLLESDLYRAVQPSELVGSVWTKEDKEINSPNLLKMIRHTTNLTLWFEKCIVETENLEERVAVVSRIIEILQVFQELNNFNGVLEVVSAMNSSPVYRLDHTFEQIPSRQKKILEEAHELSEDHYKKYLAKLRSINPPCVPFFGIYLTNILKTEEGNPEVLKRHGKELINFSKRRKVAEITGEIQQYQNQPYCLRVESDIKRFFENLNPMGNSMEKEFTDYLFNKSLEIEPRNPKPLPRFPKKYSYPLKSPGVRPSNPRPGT

As for `Cc1nc(N[C@H](C)c2cccc(C(F)F)c2F)c2cn([C@]3(C(F)(F)F)CCOC3)c(=O)cc2n1` [I-119], the figures for the IC50 in assay [1] (setting [3]) and in assay [2] were 5 nM and 70 nM, respectively.
Consider `C[C@@H](Nc1ncnc2cc(=O)n(C3(C)CC3)cc12)c1cccc2c1CCC2(F)F` [I-104], for which the IC50 is 4 nM in assay [1] (setting [3]) and 87 nM in assay [2].
The like results for `Cc1c(=O)n(C23CCC(F)(CC2)CC3)cc2c(N[C@H](C)c3cccc(C(F)F)c3F)ncnc12` [I-171] were, in that order, 6 nM and 93 nM.
The like results for `Cc1nc(N[C@H](C)c2cccc(C(F)F)c2F)c2cn(C34CCC(F)(CC3)CC4)c(=O)cc2n1` [I-121] were, in that order, 5 nM and 93 nM.
Consider `Cc1nc(N[C@H](C)c2cccc3c2CCC3(F)F)c2cn(C34CC(C3)C4)c(=O)cc2n1` [I-59], for which the IC50 in assay [1] (setting [4]) came to 3 nM; in assay [2], 113 nM.
In the case of `Cc1nc(N[C@H](C)c2cccc(C(F)F)c2F)c2cn(C34CCC(O)(CC3)CC4)c(=O)c(C)c2n1` [I-156], the results for the IC50 in assay [1] (setting [3]) and in assay [2] were 4 nM and 57 nM, respectively.
`Cc1nc(N[C@H](C)c2cccc(C(F)(F)F)c2C)c2cn(C3(C)CC3)c(=O)cc2n1` [I-37]: the IC50 in assay [1] (setting [4]) amounted to 5 nM; in assay [2], 61 nM.
Turning to `C[C@@H](Nc1ncnc2cc(=O)n(C34CCC(F)(CC3)CC4)cc12)c1cccc(C(F)F)c1F` [I-73], the values for the IC50 in assay [1] (setting [4]) and in assay [2] were 3 nM and 88 nM, respectively.
The like results for `Cc1nc(N[C@H](C)c2cccc(C(F)F)c2C)c2cn(C3(C(F)F)CC3)c(=O)cc2n1` [I-21] were, in that order, 3 nM and 113 nM.
As for `Cc1nc(N[C@H](C)c2cccc(C(F)(F)F)c2C)c2cn(C3(CF)CC3)c(=O)cc2n1` [I-38], in assay [2], the IC50 was determined as 33 nM.
For the compound `C[C@@H](Nc1ncnc2cc(=O)n(C34CC(C3)C4)cc12)c1cccc2c1CCC2(F)F` [I-106], the results for the IC50 in assay [1] (setting [3]) and in assay [2] were 4 nM and 113 nM, respectively.
Consider `Cc1nc(N[C@H](C)c2cccc(C(F)(F)F)c2C)c2cn(C3(C(F)(F)F)CC3)c(=O)cc2n1` [I-39], for which the IC50 was 18 nM in assay [1] (setting [4]) and 62 nM in assay [2].
`Cc1c(=O)n(C2(CF)CC2)cc2c(N[C@H](C)c3cccc(C(F)F)c3F)ncnc12` [I-162]: the IC50 in assay [1] (setting [3]) amounted to 7 nM.
The compound `Cc1nc(N[C@H](C)c2cccc(C(F)(F)F)c2F)c2cn(C3(c4ccccc4)CCOCC3)c(=O)cc2n1` [I-36] gave an IC50 in assay [1] (setting [4]) of 40 nM.
As to `C[C@@H](Nc1ncnc2cc(=O)n(C3(C)CC3)cc12)c1cccc(C(F)F)c1F` [I-62], the IC50 in assay [1] (setting [4]) amounted to 7 nM.
On to `Cc1nc(N[C@H](C)c2cccc(C(C)(F)F)c2)c2cn(C3(C(F)F)CC3)c(=O)cc2n1` [I-99], for which the IC50 in assay [1] (setting [4]) worked out at 7 nM.
Consider `Cc1c(=O)n(C2(C(F)(F)F)CC2)cc2c(N[C@H](C)c3cccc(C(F)F)c3F)ncnc12` [I-164], for which, in assay [1] (setting [3]), the IC50 was found to be 13 nM.
Regarding `Cc1nc(N[C@H](C)c2cccc(C(F)F)c2F)c2cn(C3(c4ccccc4)CC3)c(=O)cc2n1` [I-8], the IC50 in assay [1] (setting [4]) worked out at 16 nM.
In assay [1] (setting [4]), `Cc1nc(N[C@H](C)c2cccc(C(F)(F)F)c2F)c2cn(C3CCOCC3)c(=O)cc2n1` [I-35] gave an IC50 of 9 nM.
Compound `Cc1nc(N[C@H](C)c2cccc(C(F)F)c2F)c2cn(C3(C)CC3)c(=O)cc2n1` [I-1] yielded an IC50 in assay [1] (setting [4]) of 5 nM.
In turn, `Cc1nc(N[C@H](C)c2cccc(C(F)F)c2F)c2cn(C3(c4ccc(F)cc4)CC3)c(=O)cc2n1` [I-9] gave an IC50 in assay [1] (setting [4]) of 30 nM.
With `COCC1(n2cc3c(N[C@H](C)c4cccc(C(F)F)c4F)nc(C)nc3cc2=O)CC1` [I-6], the IC50 in assay [1] (setting [4]) was found to be 6 nM.
In the case of `Cc1nc(N[C@H](C)c2cccc(C(F)(F)F)c2)c2cn(C3(C)CCCOC3)c(=O)cc2n1` (stereo partly shown) [I-113], the IC50 in assay [1] (setting [3]) worked out at 39 nM.
`Cc1nc(N[C@H](C)c2cccc(C(F)(F)F)c2C)c2cn([C@H]3[C@@H]4COC[C@@H]43)c(=O)cc2n1` [I-40]: in assay [1] (setting [4]), the IC50 came out at 9 nM.
As for `Cc1nc(N[C@H](C)c2cccc3c2CCC3(F)F)c2cn(C34CCN(CC3)C4)c(=O)c(C)c2n1` [I-160], the IC50 in assay [1] (setting [3]) was determined as 2 nM.
As for `Cc1nc(N[C@H](C)c2cccc(C(F)F)c2F)c2cn(C3(C(F)F)CC3)c(=O)c(F)c2n1` [I-82], in assay [1] (setting [4]), the IC50 came out at 5 nM.
